# Tests used:
# [1] = tested on: persian speedwell; assay: Test Example 4: herbicidal effect by soil treatment (Table 19, symbol R); type: in vivo, Persian speedwell (Veronica persica); conditions: AAH 320 g/ha
# How it was run: (§1)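 Seeds were sown in sterilized diluvial soil and covered with about 1.5 cm of soil. An emulsion formulation diluted with water to a predetermined herbicide amount was sprayed evenly onto the soil surface. Plants grew in a greenhouse at 25° C. to 30° C., and the effect was scored three weeks after application using criteria from an earlier test.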
# [2] = tested on: blackgrass; assay: Test Example 5: herbicidal effect by foliage application, plastic box (Table 20, symbol J); type: in vivo, blackgrass (Alopecurus myosuroides); conditions: foliage application, AAH 320 g/ha, three weeks after application
# How it was run: (§2)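 Plants sown in sterilized diluvial soil and grown 14 days in a greenhouse at 25° C to 30° C, then sprayed on the foliage with the compound's emulsion diluted in water to a predetermined herbicide amount. Injury to weeds and crops scored three weeks after application on a visual rating scale.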
# [3] = tested on: wild oat; assay: Test Example 5: herbicidal effect by foliage application, plastic box (Table 20, symbol I); type: in vivo, wild oat (Avena fatua); conditions: foliage application, AAH 320 g/ha, three weeks after application
# How it was run: as §2
# [4] = tested on: southern crabgrass; assay: Test Example 4: herbicidal effect by soil treatment (Table 19, symbol F); type: in vivo, southern crabgrass (Digitaria ciliaris); conditions: AAH 320 g/ha
# How it was run: as §1
# [5] = tested on: blackgrass; assay: Test Example 4: herbicidal effect by soil treatment (Table 19, symbol J); type: in vivo, blackgrass (Alopecurus myosuroides); conditions: AAH 320 g/ha
# How it was run: as §1
# [6] = tested on: barnyard grass; assay: Test Example 4: herbicidal effect by soil treatment (Table 19, symbol H); type: in vivo, barnyard grass (Echinochloa crus-galli); conditions: AAH 320 g/ha
# How it was run: as §1
# [7] = tested on: rice flat sedge; assay: Test Example 3: herbicidal effect by foliage application, Wagner pot (Table 18, symbol E); type: in vivo, rice flat sedge (Cyperus iria); conditions: 320 g/ha
# How it was run: (§3)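 Plants were sown in alluvial soil held under 0.1–0.5 cm standing water and grown 14 days in a greenhouse at 25–30 °C. An emulsifiable formulation, water-diluted to the set dose, was then sprayed onto the foliage, and effects were scored three weeks later using previously defined criteria.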
# [8] = tested on: velvetleaf; assay: Test Example 5: herbicidal effect by foliage application, plastic box (Table 20, symbol M); type: in vivo, velvetleaf (Abutilon theophrasti); conditions: foliage application, AAH 320 g/ha, three weeks after application
# How it was run: as §2
# [9] = tested on: green foxtail; assay: Test Example 5: herbicidal effect by foliage application, plastic box (Table 20, symbol G); type: in vivo, green foxtail (Setaria viridis); conditions: foliage application, AAH 320 g/ha, three weeks after application
# How it was run: as §2
# [10] = tested on: persian speedwell; assay: Test Example 5: herbicidal effect by foliage application, plastic box (Table 20, symbol R); type: in vivo, Persian speedwell (Veronica persica); conditions: foliage application, AAH 320 g/ha, three weeks after application
# How it was run: as §2
# [11] = tested on: chickweed; assay: Test Example 5: herbicidal effect by foliage application, plastic box (Table 20, symbol P); type: in vivo, common chickweed (Stellaria media); conditions: foliage application, AAH 320 g/ha, three weeks after application
# How it was run: as §2
# [12] = tested on: lambsquarters; assay: Test Example 5: herbicidal effect by foliage application, plastic box (Table 20, symbol O); type: in vivo, lambsquarters (Chenopodium album); conditions: foliage application, AAH 320 g/ha, three weeks after application
# How it was run: as §2
# [13] = tested on: windgrass; assay: Test Example 4: herbicidal effect by soil treatment (Table 19, symbol L); type: in vivo, windgrass (Apera spica-venti); conditions: AAH 320 g/ha
# How it was run: as §1
# [14] = tested on: Italian ryegrass; assay: Test Example 4: herbicidal effect by soil treatment (Table 19, symbol K); type: in vivo, Italian ryegrass (Lolium multiflorum); conditions: AAH 320 g/ha
# How it was run: as §1
# [15] = tested on: Chinese sprangletop; assay: Test Example 3: herbicidal effect by foliage application, Wagner pot (Table 18, symbol D); type: in vivo, chinese sprangletop (Leptochloa chinensis); conditions: 320 g/ha
# How it was run: as §3
# [16] = tested on: wild oat; assay: Test Example 4: herbicidal effect by soil treatment (Table 19, symbol I); type: in vivo, wild oat (Avena fatua); conditions: AAH 320 g/ha
# How it was run: as §1
# [17] = tested on: velvetleaf; assay: Test Example 4: herbicidal effect by soil treatment (Table 19, symbol M); type: in vivo, velvetleaf (Abutilon theophrasti); conditions: AAH 320 g/ha
# How it was run: as §1
# [18] = tested on: lambsquarters; assay: Test Example 4: herbicidal effect by soil treatment (Table 19, symbol O); type: in vivo, lambsquarters (Chenopodium album); conditions: AAH 320 g/ha
# How it was run: as §1
# [19] = tested on: green foxtail; assay: Test Example 4: herbicidal effect by soil treatment (Table 19, symbol G); type: in vivo, green foxtail (Setaria viridis); conditions: AAH 320 g/ha
# How it was run: as §1
# [20] = tested on: windgrass; assay: Test Example 5: herbicidal effect by foliage application, plastic box (Table 20, symbol L); type: in vivo, windgrass (Apera spica-venti); conditions: foliage application, AAH 320 g/ha, three weeks after application
# How it was run: as §2
# [21] = tested on: barnyard grass; assay: Test Example 5: herbicidal effect by foliage application, plastic box (Table 20, symbol H); type: in vivo, barnyard grass (Echinochloa crus-galli); conditions: foliage application, AAH 320 g/ha, three weeks after application
# How it was run: as §2
# [22] = tested on: chickweed; assay: Test Example 4: herbicidal effect by soil treatment (Table 19, symbol P); type: in vivo, common chickweed (Stellaria media); conditions: AAH 320 g/ha
# How it was run: as §1
# [23] = tested on: southern crabgrass; assay: Test Example 5: herbicidal effect by foliage application, plastic box (Table 20, symbol F); type: in vivo, southern crabgrass (Digitaria ciliaris); conditions: foliage application, AAH 320 g/ha, three weeks after application
# How it was run: as §2
# [24] = tested on: redroot pigweed; assay: Test Example 5: herbicidal effect by foliage application, plastic box (Table 20, symbol N); type: in vivo, redroot pigweed (Amaranthus retroflexus); conditions: foliage application, AAH 320 g/ha, three weeks after application
# How it was run: as §2
# [25] = tested on: Italian ryegrass; assay: Test Example 5: herbicidal effect by foliage application, plastic box (Table 20, symbol K); type: in vivo, Italian ryegrass (Lolium multiflorum); conditions: foliage application, AAH 320 g/ha, three weeks after application
# How it was run: as §2
# [26] = tested on: barnyard grass; assay: Test Example 3: herbicidal effect by foliage application, Wagner pot (Table 18, symbol H); type: in vivo, barnyard grass (Echinochloa crus-galli); conditions: 320 g/ha
# How it was run: as §3
# [27] = tested on: redroot pigweed; assay: Test Example 4: herbicidal effect by soil treatment (Table 19, symbol N); type: in vivo, redroot pigweed (Amaranthus retroflexus); conditions: AAH 320 g/ha
# How it was run: as §1
Compound,"R: persian speedwell, herbicidal effect rating [1]","J: blackgrass, herbicidal effect [2]","I: wild oat, herbicidal effect [3]","F: southern crabgrass, herbicidal effect rating [4]","J: blackgrass, herbicidal effect rating [5]","H: barnyard grass, herbicidal effect rating [6]","herbicidal effect on E (rice flat sedge), rating 0-5 [7]","M: velvetleaf, herbicidal effect [8]","G: green foxtail, herbicidal effect [9]","R: persian speedwell, herbicidal effect [10]","P: chickweed, herbicidal effect [11]","O: lambsquarters, herbicidal effect [12]","L: windgrass, herbicidal effect rating [13]","K: Italian ryegrass, herbicidal effect rating [14]","herbicidal effect on D (Chinese sprangletop), rating 0-5 [15]","I: wild oat, herbicidal effect rating [16]","M: velvetleaf, herbicidal effect rating [17]","O: lambsquarters, herbicidal effect rating [18]","G: green foxtail, herbicidal effect rating [19]","L: windgrass, herbicidal effect [20]",other results
Cc1nn(C)c(=O)c(-c2c(-c3ccccc3OCC(F)F)sc3ccccc23)c1O [1-116],5 (Herbicidal rate of 90% or more (almost completely withered)),4 (Herbicidal rate of 70% or more and less than 90%),4 (Herbicidal rate of 70% or more and less than 90%),0 (Herbicidal rate of 5% or less (almost no effect)),1 (Herbicidal rate of 5% or more and less than 20%),0 (Herbicidal rate of 5% or less (almost no effect)),4 (Herbicidal rate of 70% or more and less than 90%),5 (Herbicidal rate of 90% or more (almost completely withered)),5 (Herbicidal rate of 90% or more (almost completely withered)),5 (Herbicidal rate of 90% or more (almost completely withered)),5 (Herbicidal rate of 90% or more (almost completely withered)),4 (Herbicidal rate of 70% or more and less than 90%),3 (Herbicidal rate of 40% or more and less than 70%),0 (Herbicidal rate of 5% or less (almost no effect)),2 (Herbicidal rate of 20% or more and less than 40%),1 (Herbicidal rate of 5% or more and less than 20%),2 (Herbicidal rate of 20% or more and less than 40%),3 (Herbicidal rate of 40% or more and less than 70%),0 (Herbicidal rate of 5% or less (almost no effect)),5 (Herbicidal rate of 90% or more (almost completely withered)),"H: barnyard grass, herbicidal effect [21]: 4 (Herbicidal rate of 70% or more and less than 90%); P: chickweed, herbicidal effect rating [22]: 5 (Herbicidal rate of 90% or more (almost completely withered)); F: southern crabgrass, herbicidal effect [23]: 4 (Herbicidal rate of 70% or more and less than 90%); N: redroot pigweed, herbicidal effect [24]: 5 (Herbicidal rate of 90% or more (almost completely withered)); K: Italian ryegrass, herbicidal effect [25]: 2 (Herbicidal rate of 20% or more and less than 40%); herbicidal effect on H (barnyard grass), rating 0-5 [26]: 5 (Herbicidal rate of 90% or more (almost completely withered)); N: redroot pigweed, herbicidal effect rating [27]: 5 (Herbicidal rate of 90% or more (almost completely withered))"
CCCC(=O)Oc1c(OC)nn(C)c(=O)c1-c1c(-c2cc(Cl)ccc2OC)sc2ccccc12 [1-179],4 (Herbicidal rate of 70% or more and less than 90%),0 (Herbicidal rate of 5% or less (almost no effect)),3 (Herbicidal rate of 40% or more and less than 70%),0 (Herbicidal rate of 5% or less (almost no effect)),0 (Herbicidal rate of 5% or less (almost no effect)),0 (Herbicidal rate of 5% or less (almost no effect)),3 (Herbicidal rate of 40% or more and less than 70%),2 (Herbicidal rate of 20% or more and less than 40%),3 (Herbicidal rate of 40% or more and less than 70%),4 (Herbicidal rate of 70% or more and less than 90%),4 (Herbicidal rate of 70% or more and less than 90%),3 (Herbicidal rate of 40% or more and less than 70%),0 (Herbicidal rate of 5% or less (almost no effect)),0 (Herbicidal rate of 5% or less (almost no effect)),0 (Herbicidal rate of 5% or less (almost no effect)),0 (Herbicidal rate of 5% or less (almost no effect)),0 (Herbicidal rate of 5% or less (almost no effect)),0 (Herbicidal rate of 5% or less (almost no effect)),0 (Herbicidal rate of 5% or less (almost no effect)),1 (Herbicidal rate of 5% or more and less than 20%),"H: barnyard grass, herbicidal effect [21]: 3 (Herbicidal rate of 40% or more and less than 70%); P: chickweed, herbicidal effect rating [22]: 4 (Herbicidal rate of 70% or more and less than 90%); F: southern crabgrass, herbicidal effect [23]: 3 (Herbicidal rate of 40% or more and less than 70%); N: redroot pigweed, herbicidal effect [24]: 4 (Herbicidal rate of 70% or more and less than 90%); K: Italian ryegrass, herbicidal effect [25]: 0 (Herbicidal rate of 5% or less (almost no effect)); herbicidal effect on H (barnyard grass), rating 0-5 [26]: 4 (Herbicidal rate of 70% or more and less than 90%); N: redroot pigweed, herbicidal effect rating [27]: 3 (Herbicidal rate of 40% or more and less than 70%)"
